Measured values reported in article PMC4503722, “Novel Phenotypic Outcomes Identified for a Public Collection of Approved Drugs from a Publicly Accessible Panel of Assays” (PLoS ONE, 2015).

Assays:
[1] = system: ECFC/ADSC co-culture cell nuclei number
[2] = system: nuclear β-catenin in C2C12 cells; experiment: cells; format: cell-based; conditions: concentration response; for WntCondMedia_bCatenin C2C12 IC50/EC50: assay number 5
[3] = system: endothelial tube formation in co-cultures of ECFCs and ADSCs treated with VEGF; experiment: cells; format: cell-based, human
[4] = system: alkaline phosphatase (ALP) activity in C2C12 cells; format: cell-based; conditions: concentration response; for WntCondMedia_Alk Phos C2C12 IC50/EC50: assay number 6
[5] = system: HeLa cells; experiment: cells; format: cell-based; conditions: for Hela CellCycMod PI 2N IC50/EC50: assay number 14; for Hela CellCycMod PI S Phase IC50/EC50: assay number 15; for Hela CellCycMod PI 4N IC50/EC50: assay number 16; for Hela CellCycMod PI MI IC50/EC50: assay number 17; for Hela CellCycMod PI Cell Number IC50/EC50: assay number 18
[6] = system: DLD-1; experiment: cells; format: cell-based; conditions: basal
[7] = system: HCT116 cells treated with a GSK3β inhibitor; experiment: cells; format: cell-based
[8] = system: RKO; experiment: cells; format: cell-based; conditions: basal
[9] = system: Colo320; experiment: cells; format: cell-based; conditions: basal
[10] = system: SW480; experiment: cells; format: cell-based; conditions: basal
[11] = system: SNU-C1; experiment: cells; format: cell-based; conditions: basal
[12] = system: HCT116; experiment: cells; format: cell-based; conditions: basal
[13] = system: HT-29; experiment: cells; format: cell-based; conditions: basal

Row | Compound | VEGF_ADSC\ECFC Angio Hoechst NucArea IC50/EC50 [1] [µM] | WntCondMedia_bCatenin C2C12 IC50/EC50 [2] [µM] | VEGF_ADSC\ECFC Angio CD31 TubeArea IC50/EC50 [3] [µM] | WntCondMedia_Alk Phos C2C12 IC50/EC50 [4] [µM] | Hela CellCycMod PI 2N IC50/EC50 ([5]; 2N) [µM] | Hela CellCycMod PI S Phase IC50/EC50 [5] [µM] | Hela CellCycMod PI 4N IC50/EC50 ([5]; 4N) [µM] | Hela CellCycMod PI MI IC50/EC50 ([5]; MI) [µM] | Hela CellCycMod PI Cell Number IC50/EC50 [5] [µM] | further results
1 | CCCCCCCCCCCCNCCNCCNCC(=O)O [NCGC00274269-01] | > 10 | > 20 | 6.0404 | > 20 | > 10 | > 10 | > 10 | > 10 | > 10 | 
2 | COc1cccc2c1C(=O)c1c(O)c3c(c(O)c1C2=O)C[C@@](O)(C(=O)CO)CC3OC1CC(N2CCOC(OC)C2)C(O)C(C)O1 (stereo partly shown) [NCGC00319019-01] | 0.04422 | 0.0135 | 0.003 | > 20 |  |  | > 10 | 0.01176 | 0.00468 | Basal_Viability ATP DLD-1 IC50/EC50 ([6]; assay number 23): 0.001 µM; GSK3b inh pretreated_Viability ATP HCT116 IC50/EC50 ([7]; assay number 26, GSK3b inhibitor pretreated): 0.001 µM; Basal_Viability ATP RKO IC50/EC50 ([8]; assay number 29): 0.001 µM; Basal_Viability ATP Colo 320 IC50/EC50 ([9]; assay number 27): 0.001 µM; Basal_Viability ATP SW480 IC50/EC50 ([10]; assay number 24): 0.001 µM
3 | CCCCCCCCCCOCC(O)CN (stereo not shown) [NCGC00166070-02] | > 10 | > 20 | 6.5465 | > 20 | > 10 | > 10 | > 10 | > 10 | > 10 | 
4 | Cc1nc(Nc2ncc(C(=O)Nc3c(C)cccc3Cl)s2)cc(N2CCN(CCO)CC2)n1 [NCGC00181129-06] | > 10 | 0.1044 | > 10 | 0.0067 | > 10 |  | > 10 | > 10 | 0.8748 | 
5 | CN1CC[C@H](c2c(O)cc(O)c3c(=O)cc(-c4ccccc4Cl)oc23)[C@H](O)C1.Cl [NCGC00250401-02] | 0.3284 | 0.1905 | 0.1138 | 0.4611 | > 10 |  | > 10 | 0.0807 | 0.0212 | 
6 | NC(N)=NN=C(/C=C/c1ccc([N+](=O)[O-])o1)/C=C/c1ccc([N+](=O)[O-])o1 [NCGC00181330-02] |  |  |  |  |  |  |  |  |  | IC50/EC50, Basal_Viability ATP DLD-1 (assay number 23) [6]: > 20 µM; IC50/EC50, Basal_Viability ATP SNU-C1 (assay number 30) [11]: 1.3539 µM; IC50/EC50, GSK3b inh pretreated_Viability ATP HCT116 (assay number 26) ([7]; GSK3b inh pretreated): 0.0237 µM; IC50/EC50, Basal_Viability ATP HCT116 (assay number 25) [12]: 0.1357 µM; IC50/EC50, Basal_Viability ATP RKO (assay number 29) [8]: 0.0128 µM; IC50/EC50, WntCondMedia_bCatenin C2C12 (assay number 5) [2]: > 20 µM; IC50/EC50, Basal_Viability ATP HT-29 (assay number 28) [13]: 0.003 µM; IC50/EC50, Basal_Viability ATP Colo 320 (assay number 27) [9]: 0.003 µM; IC50/EC50, WntCondMedia_Alk Phos C2C12 (assay number 6) [4]: 0.372 µM; IC50/EC50, Basal_Viability ATP SW480 (assay number 24) [10]: 0.0076 µM; IC50/EC50, Hela CellCycMod PI 2N (assay number 14) ([5]; 2N): > 10 µM; IC50/EC50, Hela CellCycMod PI 4N (assay number 16) ([5]; 4N): > 10 µM; IC50/EC50, Hela CellCycMod PI Cell Number (assay number 18) ([5]; Cell Number): > 10 µM; IC50/EC50, Hela CellCycMod PI MI (assay number 17) ([5]; MI): > 10 µM; IC50/EC50, Hela CellCycMod PI S Phase (assay number 15) ([5]; S Phase): > 10 µM
